Source: the supplement of paper PMC10307832

Experiments:
Assay in all cases: relative viability (nuclei count vs DMSO), 5 days (fraction); higher = more cells survive
[1] = compound: C1CC(C1)(C(=O)O)C(=O)O.[NH2-].[NH2-].[Pt+2] [Carboplatin] + CCNC(=O)c1noc(-c2cc(C(C)C)c(O)cc2O)c1-c1ccc(CN2CCOCC2)cc1 [Luminespib] (partner 0.01 µM)
Procedure, shortened: (§1)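 Relative viability is defined as nuclei in treated wells over nuclei in vehicle wells. Duplicate plates were run and medians reported. Lung cancer cell lines in 1536-well plates were dosed by pin tool one day after seeding, with one drug or with a fixed anchor-drug dose plus five library-drug doses (not always all listed) in √10 steps, and nuclei were counted after 5 days.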

[2] = compound: C1CC(C1)(C(=O)O)C(=O)O.[NH2-].[NH2-].[Pt+2] [Carboplatin] + Nc1nc2[nH]cc(CCc3ccc(C(=O)N[C@@H](CCC(=O)O)C(=O)O)cc3)c2c(=O)[nH]1 [Pemetrexed] (partner 0.2 µM)
Procedure, shortened: as §1

[3] = compound: CC[C@H](C)N1C=C(C2=C(C=C(C=C21)C3=CN=C(C=C3)N4CCNCC4)C(=O)NCC5=C(C=C(NC5=O)C)C)C [GSK126] + COc1cc2c(Oc3ccc(NC(=O)C4(C(=O)Nc5ccc(F)cc5)CC4)cc3F)ccnc2cc1OCCCN1CCOCC1 [Foretinib] (partner 0.25 µM)
Procedure, shortened: as §1

[4] = compound: NS(=O)(=O)OC[C@@H]1C[C@@H](n2ccc3c(N[C@H]4CCc5ccccc54)ncnc32)C[C@@H]1O [MLN4924] + COc1cccc2cc(-c3nc([C@H]4CC[C@H](C(=O)O)CC4)n4ncnc(N)c34)[nH]c12 [OSI-027] (partner 0.5 µM)
Procedure, shortened: as §1

Cell Line	relative viability ([1]; first compound 0.08 µM)	relative viability ([1]; first compound 0.253 µM)	relative viability ([1]; first compound 0.8 µM)	relative viability ([1]; first compound 2.53 µM)	relative viability ([1]; first compound 8 µM)	relative viability ([2]; first compound 0.08 µM)	relative viability ([2]; first compound 0.253 µM)	relative viability ([2]; first compound 0.8 µM)	relative viability ([2]; first compound 2.53 µM)	relative viability ([2]; first compound 8 µM)	relative viability ([3]; first compound 0.08 µM)	relative viability ([3]; first compound 0.253 µM)	relative viability ([3]; first compound 0.8 µM)	relative viability ([3]; first compound 2.53 µM)	relative viability ([3]; first compound 8 µM)	relative viability ([4]; first compound 0.04 µM)	relative viability ([4]; first compound 0.1265 µM)	relative viability ([4]; first compound 0.4 µM)	relative viability ([4]; first compound 1.265 µM)	relative viability ([4]; first compound 4 µM)
LOU-NH91	0.393	0.337	0.329	0.306	0.34	0.348	0.378	0.372	0.381	0.378	0.991	0.953	0.892	0.974	0.969	0.754	0.857	0.609	0.411	0.385
NCI-H1437	1.14	1.14	0.994	1.03	0.97	0.33	0.28	0.301	0.307	0.298	1.32	1.29	1.14	1.26	1.27	0.845	0.914	0.828	0.305	0.174
H3255	1.02	1.03	0.964	0.772	0.704	0.589	0.531	0.58	0.529	0.563	1.07	0.887	0.894	0.987	0.983	0.578	0.472	0.373	0.256	0.291
NCI-H1666	1.02	1.02	0.814	0.824	0.702	0.876	0.857	0.845	0.846	0.819	0.997	0.925	0.918	0.921	0.917	0.862	0.892	0.711	0.351	0.325
NCI-H2228	0.179	0.136	0.115	0.158	0.132	0.397	0.338	0.311	0.376	0.313	0.871	0.828	0.789	0.832	0.628	0.611	0.683	0.148	0.141	0.14
CAL-12T	0.324	0.334	0.317	0.579	0.282	1.21	1.34	1.13	1.12	1.14	1.13	1.12	1.09	1	1.25	0.619	0.593	0.283	0.184	0.113
SK-LU-1	0.22	0.21	0.192	0.21	0.198	1.11	0.937	0.958	0.899	0.676	0.899	0.788	0.795	0.973	0.964	0.366	0.331	0.177	0.128	0.139
LU99A	0.29	0.319	0.247	0.188	0.211	0.174	0.157	0.188	0.18	0.16	0.826	0.838	0.74	0.746	0.694	0.293	0.315	0.247	0.196	0.222
